# Measurements reported in US7741354B2, “Inhibitors of glutaminyl cyclase” (Probiodrug AG, priority 2006, dated 2010).
# Molecular target: hQC (Homo sapiens, UniProt Q16769)
# Assay: Fluorometric (fluorescent) assay of hQC inhibition, IC50
# Type: biochemical
# Settings: hQC inhibition; read-out: IC50
# Method in brief: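 Two coupled fluorometric formats at 30° C, pH 8.0 Tris/HCl with EDTA: H-Gln-βNA at 0.2 mM read at 320/410 nm, or H-Gln-AMC at varied levels read at 380/460 nm, each started by adding QC.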
# Sequence of hQC (Q16769 29-361): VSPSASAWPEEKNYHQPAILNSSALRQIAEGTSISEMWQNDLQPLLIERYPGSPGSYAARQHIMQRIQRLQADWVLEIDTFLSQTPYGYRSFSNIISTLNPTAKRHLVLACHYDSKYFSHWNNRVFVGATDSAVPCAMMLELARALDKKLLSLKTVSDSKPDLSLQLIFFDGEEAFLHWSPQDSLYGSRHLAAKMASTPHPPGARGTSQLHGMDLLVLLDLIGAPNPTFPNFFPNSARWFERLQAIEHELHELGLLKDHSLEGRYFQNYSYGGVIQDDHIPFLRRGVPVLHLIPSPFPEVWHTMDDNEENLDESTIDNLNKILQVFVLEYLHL
row,IC50 [µM],Compound
1,4,"Brc1cc(Br)cc(C(Nc2ccc3[nH]cnc3c2)c2nnnn2-c2ccc3c(c2)OCCO3)c1 (stereo not drawn) [compound 179, (1H-Benzoimidazol-5-yl)-{(3,5-dibromo-phenyl)-[1-(2,3-dihydro-benzo[1,4]dioxin-6-yl)-1H-tetrazol-5-yl]-methyl}-amine]"
2,4.9,"c1ccc(C(c2ccccc2)n2nnnc2C(Nc2ccc3[nH]cnc3c2)c2cnc3ccccc3c2)cc1 (stereo not drawn) [compound 126, [(1-Benzhydryl-1H-tetrazol-5-yl)-quinolin-3-yl-methyl]-(1H-benzoimidazol-5-yl)-amine]"
3,3.1,"Brc1cc(Br)cc(C(Nc2ccc3[nH]cnc3c2)c2nnnn2C2CCCCC2)c1 (stereo not drawn) [compound 175, (1H-Benzoimidazol-5-yl)-[(1-cyclohexyl-1H-tetrazol-5-yl)-(3,5-dibromo-phenyl)-methyl]-amine]"
4,2.2,"O=C(Cn1nnnc1C(Nc1ccc2[nH]cnc2c1)c1ccc(Br)cc1)NCCc1c[nH]c2ccccc12 (stereo not drawn) [compound 200, 2-{5-[(1H-Benzoimidazol-5-ylamino)-(4-bromo-phenyl)-methyl]-tetrazol-1-yl}-N-[2-(1H-indol-3-yl)-ethyl]-acetamide]"
5,4,"Brc1ccc(C(Nc2ccc3[nH]cnc3c2)c2nnnn2Cc2cccnc2)cc1 (stereo not drawn) [compound 201, (1H-Benzoimidazol-5-yl)-[(4-bromo-phenyl)-(1-pyridin-3-ylmethyl-1H-tetrazol-5-yl)-methyl]-amine]"
6,3.1,"Brc1cc(Br)cc(C(Nc2ccc3[nH]cnc3c2)c2nnnn2CCCCc2ccccc2)c1 (stereo not drawn) [compound 189, (1H-Benzoimidazol-5-yl)-{(3,5-dibromo-phenyl)-[1-(4-phenyl-butyl)-1H-tetrazol-5-yl]-methyl}-amine]"
7,5.8,CCOC(=O)C1CCCCC1n1nnnc1C(Nc1ccc2[nH]cnc2c1)c1ccc(OC)cc1 (stereo not drawn) [compound 184]
8,5.8,"C1=COC(C(Nc2ccc3nc[nH]c3c2)c2nnnn2CCc2cccs2)CC1 (stereo not drawn) [compound 182, (1H-Benzoimidazol-5-yl)-{(3,4-dihydro-2H-pyran-2-yl)-[1-(2-thiophen-2-yl-ethyl)-1H-tetrazol-5-yl]-methyl}-amine]"
9,7.6,"CC(Cc1ccc2c(c1)OCO2)C(Nc1ccc2[nH]cnc2c1)c1nnnn1C1CCCCC1 (stereo not drawn) [compound 116, [3-Benzo[1,3]dioxol-5-yl-1-(1-cyclohexyl-1H-tetrazol-5-yl)-2-methyl-propyl]-(1H-benzoimidazol-5-yl)-amine]"
10,6.7,"Cc1cc(C(Nc2ccc3[nH]cnc3c2)c2nnnn2CC2CCCO2)cc(C)c1O (stereo not drawn) [compound 131, 4-{(1H-Benzoimidazol-5-ylamino)-[1-(tetrahydro-furan-2-ylmethyl)-1H-tetrazol-5-yl]-methyl}-2,6-dimethyl-phenol]"
11,6.7,c1cncc(Cn2nnnc2C(Nc2ccc3[nH]cnc3c2)c2ccc3nsnc3c2)c1 (stereo not drawn) [compound 185]
12,7.6,"CCOC(=O)C1CCCCC1n1nnnc1C(Nc1ccc2[nH]cnc2c1)c1cc(Cl)ccc1O (stereo not drawn) [compound 169, 2-{5-[(1H-Benzoimidazol-5-ylamino)-(5-chloro-2-hydroxy-phenyl)-methyl]-tetrazol-1-yl}-cyclohexacar-boxylic acid ethyl ester]"
13,4.9,"Brc1cc(Br)cc(C(Nc2ccc3[nH]cnc3c2)c2nnnn2CC2CCCO2)c1 (stereo not drawn) [compound 170, (1H-Benzoimidazol-5-yl)-{(3,5-dibromo-phenyl)-[1-(tetrahydro-furan-2-ylmethyl)-1H-tetrazol-5-yl]-methyl}-amine]"
14,4.9,"OCc1ccc(C(Nc2ccc3[nH]cnc3c2)c2nnnn2-c2ccccc2OCc2ccccc2)o1 (stereo not drawn) [compound 143, (5-{(1H-Benzoimidazol-5-ylamino)-[1-(2-benzyloxy-phenyl)-1H-tetrazol-5-yl]-methyl}-furan-2-yl)-methanol]"
15,9.4,"O=c1c(C(Nc2ccc3[nH]cnc3c2)c2nnnn2CC2CCCO2)coc2ccccc12 (stereo not drawn) [compound 159, 3-{(1H-Benzoimidazol-5-ylamino)-[1-(tetrahydro-furan-2-ylmethyl)-1H-tetrazol-5-yl]-mthyl}-chromen-4-one]"
16,5.8,COc1ccccc1C(Nc1ccc2[nH]cnc2c1)c1nnnn1Cc1ccccc1 (stereo not drawn) [compound 151]

# Same assay, conditions: read-out: IC50
row,IC50 [µM],Compound
1,2.2,"Clc1ccc(Cn2nnnc2C(NCCCn2ccnc2)c2ccc(Cl)c(Cl)c2)cc1 (stereo not drawn) [compound 1, [[1-(4-Chloro-benzyl)-1H-tetrazol-5-yl]-(3,4-dichloro-phenyl)-methyl]-(3-imidazol-1-yl-propyl)-amine]"
2,1.3,"COc1ccc(C(Nc2ccc3[nH]cnc3c2)c2nnnn2Cc2ccccc2Cl)c(C)c1 (stereo not drawn) [compound 77, (1H-Benzoimidazol-5-yl)-[[1-(2-chloro-benzyl)-1H-tetrazol-5-yl]-(4-methoxy-2-methyl-phenyl)-methyl]-amine]"
3,6.7,CCOC(=O)C1CCCCC1n1nnnc1C(Nc1ccc2[nH]cnc2c1)c1ccc(Cl)c(F)c1 (stereo not drawn) [compound 84]
4,6.7,"CC(CC(Nc1ccc2[nH]cnc2c1)c1nnnn1C(C)(C)C)c1ccccc1 (stereo not drawn) [compound 106, (1H-Benzoimidazol-5-yl)-[1-(1-tert-butyl-1H-tetrazol-5-yl)-3-phenyl-butyl]-amine]"
5,2.2,"Oc1cccc2ccc(C(NCCCn3ccnc3)c3nnnn3C[C@@H]3CCCO3)nc12 (stereo partly drawn) [compound 12, 2-((3-Imidazol-1-yl-propylamino)-{1-[(S)-1-(tetrahydro-furan-2-yl)methyl]-1H-tetrazol-5-yl}-methyl)-quinolin-8-ol]"
6,2.2,"c1ccc2ncc(C(Nc3ccc4[nH]cnc4c3)c3nnnn3CC3CCCO3)cc2c1 (stereo not drawn) [compound 102, (1H-Benzoimidazol-5-yl)-{quinolin-3-yl-[1-(tetrahydro-furan-2-ylmethyl)-1H-tetrazol-5-yl]-methyl}-amine]"
7,9.4,"C=CCn1nnnc1C(NCCCn1ccnc1)c1cc(C)c(C)cc1C (stereo not drawn) [compound 48, [(1-Allyl-1H-tetrazol-5-yl)-(2,4,5-trimethyl-phenyl)-methyl]-(3-imidazol-1-yl-propyl)-amine]"
8,4.9,"Cc1ccc(C(C)CC(Nc2ccc3[nH]cnc3c2)c2nnnn2C2CCCCC2)o1 (stereo not drawn) [compound 96, (1H-Benzoimidazol-5-yl)-[1-(1-cyclohexyl-1H-tetrazol-5-yl)-3-(5-methyl-furan-2-yl)-butyl]-amine]"
9,4.9,"COc1ccc(C(Nc2ccc3[nH]cnc3c2)c2nnnn2CC2CCCO2)cc1 (stereo not drawn) [compound 88, (1H-Benzoimidazol-5-yl)-{(4-methoxy-phenyl)-[1-(tetrahydro-furan-2-ylmethyl)-1H-tetrazol-5-yl]-methyl}-amine]"
10,5.8,"c1ccc(CC(Nc2ccc3[nH]cnc3c2)c2nnnn2Cc2cccnc2)cc1 (stereo not drawn) [compound 73, (1H-Benzoimidazol-5-yl)-[2-phenyl-1-(1-pyridin-3-ylmethyl-1H-tetrazol-5-yl)-ethyl]-amine]"
11,4,"Cn1nnnc1C(NCCCn1ccnc1)c1ccc2[nH]ccc2c1 (stereo not drawn) [compound 30, (3-Imidazol-1-yl-propyl)-[(1H-indol-5-yl)-(1-methyl-1H-tetrazol-5-yl)-methyl]-amine]"
12,2.2,"COc1ccc(C(Nc2ccc3[nH]cnc3c2)c2nnnn2C2CCCCC2)cc1 (stereo not drawn) [compound 72, (1H-Benzoimidazol-5-yl)-[(1-cyclohexyl-1H-tetrazol-5-yl)-(4-methoxy-phenyl)-methyl]-amine]"
13,7.6,"COCCn1nnnc1C(NCCCn1ccnc1)c1cc(C)c(C)cc1C (stereo not drawn) [compound 43, (3-Imidazol-1-yl-propyl)-[[1-(2-methoxy-ethyl)-1H-tetrazol-5-yl]-(2,4,5-trimethyl-phenyl)-methyl]-amine]"
14,7.6,"C=CCn1nnnc1C(NCCCn1ccnc1)c1ccc2[nH]ccc2c1 (stereo not drawn) [compound 46, [(1-Allyl-1H-tetrazol-5-yl)-(1H-indol-5-yl)-methyl]-(3-imidazol-1-yl-propyl)-amine]"
15,6.7,"N#Cc1cc(C(NCCCn2ccnc2)c2nnnn2Cc2ccc(Cl)cc2)ccc1F (stereo not drawn) [compound 5, 5-[[1-(4-Chloro-benzyl)-1H-tetrazol-5-yl]-(3-imidazol-1-yl-propylamino)-methyl]-2-fluoro-benzonitrile]"
16,6.7,"CC(C)(C)n1nnnc1C(NCCCn1ccnc1)[C@@H]1CCC=CO1 (stereo in doubt) [compound 61, [(S)-(1-tert-Butyl-1H-tetrazol-5-yl)-3,4-dihydro-2H-pyran-2-yl-methyl]-(3-imidazol-1-yl-propyl)-amine]"
17,4.9,"Oc1cccc2ccc(C(NCCCn3ccnc3)c3nnnn3Cc3ccc(Cl)cc3)nc12 (stereo not drawn) [compound 4, 2-[[1-(4-Chloro-benzyl)-1H-tetrazol-5-yl]-(3-imidazol-1-yl-propylamino)-methyl]-quinolin-8-ol]"
